The source of these data is a melting point compilation (Tetko et al.; mined from patent text by program, amines drawn as free bases though some values may be those of a salt).

As a reminder, the melting point is the temperature, or range, at which the solid turns liquid.

The molecule `Nc1nc(-n2cc(C(=O)O)c(=O)c3c(N)c(F)c(F)c(Cl)c32)c(F)cc1F` returned a melting point of 280 °C.

Molecule `COc1ccc2sc(C(N)=O)c(SC)c2c1` had a melting point of 171 to 173 °C.

Molecule `CC(C#N)=C1CCN(c2ccc(N3C[C@H](CNC(=O)C(Cl)Cl)OC3=O)cc2F)CC1` gave a melting point of 202 to 204 °C.

`O=c1cc(C2CCCCC2)oc2ccc(OCCCCCN3CCC(O)CC3)cc12` displayed a melting point of 85 to 86 °C.

For `COc1ccc2c(c1)C(=C1CCN(C)CC1)c1ccccc1C=C2`, the melting point was 112 to 114 °C.

`CNc1nc(-c2ccccc2)c(CCOC)c2ncnn12` had a melting point of 133 to 136 °C.

`COC(=O)C1=C(C)NC(C)=C(C(=O)OCC2CCCO2)C1c1cccc(NC(C)=O)c1` (stereo unspecified) gave a melting point of 158 to 160 °C.

As for `CC(C)(C)CNc1cc(Cl)nc(NC(C)(C)C)n1`, the melting point was 110 to 111 °C.

`CC(C)(C)COc1ccc([N+](=O)[O-])cc1` showed a melting point of 36 °C.

The molecule `Cc1c(Cc2ccccc2)c(=O)oc2cc(OCc3nnn[nH]3)cc(OCc3nnn[nH]3)c12` yielded a melting point of 229 to 233 °C.

For the molecule `COc1nc(Cn2cncn2)cnc1NS(=O)(=O)c1cccc(Cl)c1Cl`, the melting point fell in the range of 95 to 105 °C.

With `CCCCCCCC(=O)NCc1ccccc1`, the melting point lay in the range of 76 to 78 °C.

The molecule `Cc1nc(N)sc1C(=O)c1cccnc1` had a melting point of 287 to 288 °C.

On to `COC(=O)Nc1nc2ccc(Sc3ccccc3)cn2c1CN(C)C`, for which the melting point was 172 to 175 °C.

With `CC(C)=CCOc1ccc(C(=O)C=Cc2cccc([N+](=O)[O-])c2)c(O)c1`, the melting point lay in the range of 125 to 126 °C.

Molecule `O=c1[nH]c(C(F)(F)F)nc2ccc(S(=O)(=O)O)cc12` gave a melting point above 330 °C.

As to `O=C1c2ccccc2C(=O)c2oc(-c3ccccc3)nc21`, the melting point was above 260 °C.

`c1ccc2nc(N3CCNCC3)c(OCCOc3cncnc3)nc2c1` gave a melting point of 115 to 117 °C.

Turning to `Cn1cnc(S(=O)(=O)NCCCCCCNS(=O)(=O)c2cn(C)cn2)c1`, the melting point is 153 to 154 °C.

For `N#CC(c1ccc(F)cc1)c1ccc([N+](=O)[O-])cc1C(F)(F)F` (stereo unspecified), the melting point stood at 68 °C.

In turn, `O=C(NCc1cccnc1)c1ccc2n1Cc1ccccc1N(C(=O)CSc1ccc(Br)cc1)C2` displayed a melting point of 136 to 137 °C.

`N#Cc1ccc(Nc2ccc(C(F)(F)F)cc2Nc2ccc(C#N)cc2C(=O)O)c(C(=O)O)c1` gave a melting point of 235 to 240 °C.

Turning to `O[C@@H]1CNC[C@H]1Oc1cccc2ccccc12` (relative stereo), the melting point is 112 to 115 °C.

Take `C=CCN1CCN(c2nc3cccccc-3n2)CC1`: the melting point lay within 108 to 111 °C.

Molecule `COC(=O)Cc1ccc(OCCNC(=O)C2Cc3ccccc3N2S(=O)(=O)c2ccc(-c3cc(C)ccc3F)cc2)cc1` (stereo unspecified) had a melting point of 55 to 58 °C.

In turn, `COc1ccc(Cl)cc1Nc1c(C#N)cnc2cc(OC)c(OC)cc12` came in with a melting point of 200 to 202 °C.

`CCCCCCCCCCCCCCCCCCOc1cc(OCc2ccccc2)cc(C(=O)O)c1` came in with a melting point of 97 to 99 °C.

The molecule `CC(CNS(=O)(=O)c1ccccc1)c1ccc(OCC(=O)O)c(F)c1` (stereo unspecified) registered a melting point of 49 to 51 °C.

On to `Cc1noc(-c2cccc(Oc3ccc4c(c3)S(=O)(=O)NCCO4)c2)n1`, for which the melting point stood at 140 °C.

`Nc1cccc(OCc2ncc3ccccc3n2)c1` yielded a melting point of 103 to 107 °C.

`COc1cccc(-c2nc(N)ncc2-c2ccc(=O)n(C)n2)c1` showed a melting point of 195 °C.

For `CCOC(=O)C(=CNc1cccc2c1CCC2)C(=O)OCC`, the melting point was 25 to 30 °C.

In the case of `Cc1nnc2n1-c1ccc(C#C[Si](C)(C)C)cc1C(c1ccccc1)=NC2`, the melting point fell in the range of 229 to 233 °C.

In turn, `CNc1nc(O)nc2c(Cl)cc(OC)c(OC)c12` showed a melting point of 219 to 221 °C.

`Clc1ncc(-c2ccco2)cn1` displayed a melting point of 134 to 136 °C.

As to `C(=C1CC(c2ccccc2)Cc2ccccc21)c1cncn1Cc1ccccc1` (stereo unspecified), the melting point turned out to be 198 °C.

Molecule `O=C([C@H]1CC[C@H](Nc2ncc3ncnc(Nc4ccc(F)c(Cl)c4)c3n2)CC1)N1CCOCC1` returned a melting point of 221 to 225 °C.

With `Cc1ccc(C2COc3c(C)c(C)cc(C)c32)cc1` (stereo unspecified), the melting point was 65 to 66 °C.

`COc1cc(Nc2cc(-c3ccc(F)cc3)nc3ccccc23)ccc1Cl` gave a melting point of 274 to 276 °C.

The molecule `CN(c1ccccc1)S(=O)(=O)c1ccc(NC(=O)C(C)(O)C(F)(F)F)cc1` (stereo unspecified) yielded a melting point of 147 to 149 °C.

Molecule `CCOC(=O)On1nnc2ccc(Cl)cc21` had a melting point of 160 to 162 °C.

`O=C(O)CCC(=O)c1ccc2[nH]c3nc(Cl)ccc3c2c1` displayed a melting point of 281 °C.

On to `CCCCCCCCCCCCCCCCNC(=O)c1ccc(-n2oc(C(C)(C)C)c(COc3ccc(N)cc3)c2=O)c([N+](=O)[O-])c1`, for which the melting point stood at 220 °C.

Consider `COC(=O)[C@](C)(Cc1ccc(N(C(=O)OC(C)(C)C)C(=O)C2CCNCC2)cc1)n1nnnc1C1CCCN1S(=O)(=O)c1ccc(C)cc1` (stereo partly specified), for which the melting point lay within 92 to 102 °C.

The molecule `CON=C1CN(c2c(F)cc3c(=O)c(C(=O)O)cn(C4CC4)c3c2Cl)CC12CNC2` showed a melting point of 220 to 221 °C.

Molecule `NCCC(O)C(C(=O)O)N1CCC1=O` (stereo unspecified) gave a melting point of 152 to 154 °C.

In turn, `CN(C)c1ccc(-c2cccc3c2C2(COc4cc5c(cc42)OCO5)C(=O)N3)cn1` (stereo unspecified) yielded a melting point above 245 °C.

On to `COCCn1cc(C(=O)N2CCC(c3cc(CNC(=O)C(F)(F)F)ccc3F)CC2)c2c(-c3ccncc3)cccc21`, for which the melting point is 152 to 155 °C.

Consider `COc1ccc2c(c1)CCC1=C2CCC2(C(C)C)C(=O)CCC12` (stereo unspecified), for which the melting point was 85 to 100 °C.

Take `C=C[C@@H](C)[C@H]1CC[C@H]2[C@@H]3CCC4=CC(=O)CC[C@]4(C)[C@H]3CC[C@]12C`: the melting point is 138 to 139 °C.

`CC(C)C1Sc2ccccc2N(CC(N)=O)C(=O)C1N` (stereo unspecified) showed a melting point of 227 to 229 °C.

`COc1ccc([C@H]2Cc3c(cccc3C(F)(F)F)NC(=O)[C@H]2OC(=O)c2ccccc2C(=O)O)cc1` (relative stereo) yielded a melting point of 161 to 162 °C.

`CN(Cc1cc(C(F)(F)F)cc(C(F)(F)F)c1)C(=O)c1nc(Cl)c2ccccc2c1-c1ccc(F)cc1` showed a melting point of 142 to 143 °C.

In turn, `Cc1cc(Oc2cccc(C(F)(F)F)c2)nn1C(=O)Nc1cccc([N+](=O)[O-])c1` showed a melting point of 83 to 86 °C.

Turning to `FC(F)(F)c1cccc(Nc2nc(NCc3ccco3)nc(OCc3ccncc3)n2)c1`, the melting point lay within 124 to 126 °C.

The molecule `CCOC(=O)c1cccc(NC(=O)C(CSC(C)=O)Cc2ccccc2)c1` (stereo unspecified) displayed a melting point of 89 to 92 °C.

`CCOc1nc(NC(C)C)c2cscc2n1` had a melting point of 155 to 156 °C.

`O=C(O)c1nc(-c2ccccc2)n2c1CN=C(c1ccccc1F)c1cc(Cl)ccc1-2` came in with a melting point of 267 to 269 °C.

As for `CCC1CC(=O)N(Cc2ccc(NS(C)(=O)=O)cc2)N=C1c1ccc(OC)c(OC2CCCC2)c1` (stereo unspecified), the melting point is 69 °C.

Regarding `O=C(CCCCc1ccccc1)N[C@H](Cc1ccc(C(F)(F)F)cc1)[C@@H](O)c1ccc(F)cc1` (racemic), the melting point lay within 152 to 153 °C.

Consider `COc1ccc(C(=O)COC(=O)NC(C)C)cc1`, for which the melting point is 121 to 122 °C.

With `Cc1noc(-c2cccc(CN3CCN(c4ccc(NC(=O)c5cccc(C)c5-c5ccc(C(C)C)cc5)cc4)CC3)c2)n1`, the melting point was 74 °C.

The molecule `COC(=O)Cc1cn(Cc2ccc(OCc3ccccc3)cc2)nc1-c1ccc(F)cc1` returned a melting point of 58 to 59 °C.

In the case of `Cn1c(=O)cc(C(F)(F)F)[nH]c1=O`, the melting point lay in the range of 235 to 237 °C.

Molecule `CCOC(=O)CC[C@H](NC(=O)c1ccc(CCc2cnc3nc(NC(C)=O)nc(O)c3c2)cc1)C(=O)OCC` had a melting point above 200 °C.

Take `O=C(O)C(O)c1ccccc1[N+](=O)[O-]` (stereo unspecified): the melting point was in the range of 137 to 139 °C.

In the case of `N#Cc1cc(F)cc(-c2ccc3c(c2)C2(CCCC2)C(=O)N3)c1`, the melting point was 235 to 237 °C.

`CCOC1C(NC(=O)C(F)(F)F)CC(OC)OC1C` (stereo unspecified) yielded a melting point of 183 to 185 °C.

On to `O=C(O)Cc1cccc(F)c1OCCCc1cn(-c2ccc(C(F)(F)F)cn2)nc1C1CCCCC1`, for which the melting point is 149 to 150 °C.

`NS(=O)(=O)c1ccc(NC(=O)c2ccc(F)cc2SSc2cc(F)ccc2C(=O)Nc2ccc(S(N)(=O)=O)cc2)cc1` came in with a melting point of 309 to 310 °C.

`N#CN1C(=O)[C@H]2CC=CC[C@H]2C1=O` had a melting point of 136 to 138 °C.

For `CC1(C)CC(OC(=O)CCC(=O)OC2CC(C)(C)NC(C)(C)C2)CC(C)(C)N1`, the melting point turned out to be 118 °C.

`COC(=O)c1nc(Cl)c(Cl)c(Cl)c1I`: the melting point fell in the range of 61 to 62 °C.

In turn, `Cc1nc2c(O)c(CCC(=O)c3cccs3)c(C(=O)N(C)C)cn2c1C` showed a melting point of 234 °C.

Turning to `Cn1nnnc1CC(=O)c1ccccc1N`, the melting point is 128 to 132 °C.

Molecule `CCCn1c(=O)c2[nH]c(C3CCC(=O)C3)nc2n(CCC)c1=O` (stereo unspecified) returned a melting point of 147 to 148 °C.

For `NC[C@@H]1C[C@@H](SC(c2ccccc2)(c2ccccc2)c2ccccc2)CN1S(=O)(=O)c1ccc2ccccc2c1`, the melting point fell in the range of 88 to 89 °C.

`COC(=O)c1nc(Cl)c(F)c(N)c1Br` showed a melting point of 138 to 139 °C.

As for `O=C(CCCCCl)NC1c2ccccc2CSc2ccccc21` (stereo unspecified), the melting point is 155 to 156 °C.

As to `CCCCc1cc2ccc(C(=O)O)cc2o1`, the melting point lay within 102 to 104 °C.

In turn, `Brc1ccc2[nH]c3cnc(-c4ccon4)cc3c2c1` displayed a melting point of 292 to 293 °C.

In turn, `O=C(COc1noc(-c2ccccc2)c1Cl)NCCO[N+](=O)[O-]` yielded a melting point of 138 to 139 °C.

For `IC=CC(CC1CCCC1)OC(c1ccccc1)(c1ccccc1)c1ccccc1` (stereo unspecified), the melting point lay within 87 to 88 °C.

As for `N#CCCN1CCN(c2cc3cccnc3c(-c3cccc(C#N)c3)n2)CC1`, the melting point was above 200 °C.

The molecule `CN(C)C=C1N=C(c2ccccc2Cl)c2cc(Cl)ccc2N(C)C1=O` yielded a melting point of 199 to 200 °C.

In the case of `NC(C(=O)N1CCC(F)C1)C1CCCCC1` (mixture of isomers), the melting point is above 250 °C.
